Experimental findings from patent publication US7256198B2, “Pyrimidoindolones and methods for using same” (Wyeth, priority 2004, dated 2007) are described below.

Series [1] addresses T1, recombinant caspase 3 (Homo sapiens, UniProt P42574).
T1 construct: His tag (C); made in house; host or cells: E. coli
T1 sequence (P42574 29-175 limits assumed): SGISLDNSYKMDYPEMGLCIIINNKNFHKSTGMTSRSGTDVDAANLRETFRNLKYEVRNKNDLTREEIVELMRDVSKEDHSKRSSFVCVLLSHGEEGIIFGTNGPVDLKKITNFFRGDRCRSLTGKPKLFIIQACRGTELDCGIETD
T1 sequence (P42574 176-277 limits assumed): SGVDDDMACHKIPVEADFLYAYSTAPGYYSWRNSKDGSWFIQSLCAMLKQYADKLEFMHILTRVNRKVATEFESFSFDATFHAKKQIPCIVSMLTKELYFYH
Briefly: Caspase 3 Inhibition Assay (Ac-DEVD-AFC fluorogenic substrate cleavage). In kind it is biochemical. To be noted: pH 7.2, 23° C.; for IC50: recombinant caspase 3 0.25 nM, Ac-DEVD-AFC 25 μM; for inhibition at 50 µM: @ 50 μM compound, recombinant caspase 3, Ac-DEVD-AFC 25 μM, read-out: percent inhibition at the highest compound concentration. As to the method:
Caspase 3 was expressed intracellularly in E. coli with a c-terminal His tag. Fermentation was performed at 25° C. in a B. Braun Biotech Biostat C 10 liter bioreactor vessel. The culture was collected in IL bottles and centrifuged in Komspin KA-7.1000 rotors at approximately 8000 RCF (Relative Centrifugal Force). The cell pellets were re-suspended in 20 mM Tris pH 8.0, 500 mM NaCl, and 5 mM imidazole. The cell suspension was disrupted by passing 5 times through a microfluidizer Model 110Y (Microfluidics Corp, Newton, Mass). After centrifugation (13 kg, 30 min at 4 C), the supernatant was applied to a column of Nickle-NTA agarose. The Caspase 3 was eluted with a gradient of 5 mM to 150 mM imidazole in the above buffer. Fractions containing Caspase 3 were pooled and concentrated with a Millipore Ultrafree filtration device. The concentrated Caspase 3 solution was loaded unto a TSK gel G3000sw column (Tosoh Bioseph LLC), equilibrated with a buffer of 20 mM PIPES pH 7.2, 100 mM NaCl, 1 mM EDTA & 5 mM Cysteine. Fractions containing Caspase 3 were pooled and concentrated. Sometimes CHAPS was added to 0.1% and sucrose to 10% into the protein sample.
Caspase 3 was assayed at 23° C. (room temp) in 96-well plates using the internally quenched tetrapeptide substrate N-acetyl-aspartyl-glutamyl-valyl-aspartate-7-amino-4-trifluoromethyl coumarin (Ac-DEVD-AFC purchased from Biomol). The assays are conducted at pH 7.2 in a buffered system containing 20 mM PIPES, 100 mM NaCl, 1 mM EDTA, 0.1% CHAPS, 10% sucrose and 5 mM L-cysteine. […] A steady state rate of substrate cleavage is obtained for analysis.
The progress curves generated were fitted by computer to equation 1 to generate an IC50 value. Equation 1: y=Bmax*(1−(x^n/(K^n+x^n))), where Bmax is rate in the absence of inhibitor.

What is called IC50 is the point on the concentration scale where inhibition reaches its midpoint. One may read the melting point as the temperature, or range, at which the solid turns liquid. For the compound `O=C1C2=NCC3(CCCC3)CN2c2ccc(S(=O)(=O)N3CCC[C@H]3CN3CCOCC3)cc21` [Example 83, 8′-{[(2S)-2-(morpholin-4-ylmethyl)pyrrolidin-1-yl]sulfonyl}spiro[cyclopentane-1,3′-pyrimido[1,2-a]indol]-10′(2′H)-one], the melting point fell in the range of 162.9 to 163.6 °C. In addition, the IC50 in series [1] stood at 14 nM.

On to `COC[C@@H]1Cc2ccccc2N1S(=O)(=O)c1ccc2c(c1)C(=O)C1=NCC(C)(C)CN12` [Example 33, 8-{[(2S)-2-(Methoxymethyl)-2,3-dihydro-1H-indol-1-yl]sulfonyl}-3,3-dimethyl-3,4-dihydropyrimido[1,2-a]indol-10(2H)-one], for which the melting point lay in the range of 173.4 to 175 °C. Besides, the IC50 in series [1] is 555 nM.

For `CNS(=O)(=O)c1ccc2c(c1)C(=O)C1=NCCCN12` [Example 7, N-Methyl-10-oxo-2,3,4,10-tetrahydropyrimido[1,2-a]indole-8-sulfonamide], the melting point was 170 to 183 °C (dec.). For the same compound, the IC50 in series [1] was 1270 nM.

Regarding `CC1CCN2C(=N1)C(=O)c1cc(S(=O)(=O)N3CCCC3)ccc12` (stereo not drawn) [Example 87], the melting point was in the range of 152.5 to 153 °C. Besides, in series [1], the IC50 was 15 nM.

For the compound `COC[C@@H]1CCCN1S(=O)(=O)c1ccc2c(c1)C(=O)C1=NCCCN12` [Example 1, 8-{[(2S)-2-(Methoxymethyl)pyrrolidin-1-yl]sulfonyl}-3,4-dihydropyrimido[1,2-a]indol-10(2H)-one], the melting point fell in the range of 171 to 172 °C. In series [1], the IC50 was 27 nM.

`CC1(C)CN=C2C(=O)c3cc(S(=O)(=O)N4CCc5ccccc54)ccc3N2C1` [Example 32, 8-(2,3-Dihydro-1H-indol-1-ylsulfonyl)-3,3-dimethyl-3,4-dihydropyrimido[1,2-a}indol-10(2H)-one] returned a melting point of 169.8 to 170.8 °C. The half-maximal inhibitory concentration (IC50) in series [1] was 16 nM.

`CC1(C)CN=C2C(=O)c3cc(S(=O)(=O)N4CCC[C@H]4CO)ccc3N2C1` [Example 8, 8-{[(2S)-2-(Hydroxymethyl)pyrrolidin-1-yl]sulfonyl}-3,3-dimethyl-3,4-dihydropyrimido[1,2-a]indol-10(2H)-one]: the melting point was 91 to 96 °C (dec.). In addition, in series [1], the IC50 was found to be 25 nM.

For the compound `O=C1C2=NCCCN2c2ccc(O)cc21` [Example 19, 8-Hydroxy-3,4-dihydropyrimido[1,2-a]indol-10(2H)-one], the melting point is 265 °C (dec.). In addition, the inhibition at 50 µM in series [1] worked out at 2%.

As to `CC1(C)CN=C2C(=O)c3cc(S(=O)(=O)N4CCCC4)ccc3N2C1` [Example 12, 3,3-Dimethyl-8-(pyrrolidin-1-ylsulfonyl)-3,4-dihydropyrimido[1,2-a]indol-10(2H)-one], the melting point is 200 to 201 °C. For the same compound, the IC50 in series [1] was found to be 9 nM.

With `O=C1C2=NCCCN2c2ccc(Br)cc21` [Example 9, 8-Bromo-3,4-dihydropyrimido[1,2-a]indol-10(2H)-one], the melting point was 166 to 168 °C (dec.). In addition, the inhibition at 50 µM in series [1] came out at 72%.

Regarding `O=C1C2=NCCCN2c2ccc(F)cc21` [Example 18, 8-Fluoro-3,4-dihydropyrimido[1,2-a]indol-10(2H)-one], the melting point lay within 150 to 152 °C. Moreover, the inhibition at 50 µM in series [1] came out at 26%.

On to `CC1CCN=C2C(=O)c3cc(Br)ccc3N21` (stereo not drawn) [Example 13, 8-Bromo-4-methyl-3,4-dihydropyrimido[1,2-a]indol-10(2H)-one], for which the melting point is 127 to 129 °C. The IC50 in series [1] stood at 50000 nM.
